Source: ChEMBL document CHEMBL3045994, “Design, synthesis, and anticonvulsant evaluation of some novel 1, 3 benzothiazol-2-yl hydrazones/acetohydrazones” (Med Chem Res, 2012)

Tests used:
[1] = Octanol-phosphate buffer partition coefficient, log P of the compound after 24 hr; format: physicochemical
Mus musculus [2] = assay: Neurotoxicity in Mus musculus albino CF1 (mouse) assessed as motor impairment at 300 mg/kg, ip up to 4 hr; format: toxicity, organism-based; parameters: dose 300 mg/kg, route intraperitoneal; details: in vivo
Mus musculus [3] = assay: Anticonvulsant activity in Mus musculus albino CF1 (mouse) assessed as protection against 6 Hz psychomotor seizure at 100 mg/kg, ip after 2 hr; format: functional; details: route intraperitoneal
Mus musculus [4] = assay: Anticonvulsant activity in Mus musculus albino CF1 (mouse) assessed as protection against 6 Hz psychomotor seizure at 100 mg/kg, ip after 4 hr; format: functional; details: route intraperitoneal
Mus musculus [5] = assay: Neurotoxicity in Mus musculus albino CF1 (mouse) assessed as motor impairment at 100 mg/kg, ip after 4 hr; format: toxicity, organism-based; parameters: dose 100 mg/kg, route intraperitoneal; details: in vivo
Mus musculus [6] = assay: Neurotoxicity in Mus musculus albino CF1 (mouse) assessed as motor impairment at 100 mg/kg, ip after 1 hr; format: toxicity, organism-based; parameters: dose 100 mg/kg, route intraperitoneal; details: in vivo
Mus musculus [7] = assay: Neurotoxicity in Mus musculus albino CF1 (mouse) assessed as motor impairment at 100 mg/kg, ip after 0.5 hr; format: toxicity, organism-based; parameters: dose 100 mg/kg, route intraperitoneal; details: in vivo
Mus musculus [8] = assay: Neurotoxicity in Mus musculus albino CF1 (mouse) assessed as motor impairment at 100 mg/kg, ip after 2 hr; format: toxicity, organism-based; parameters: dose 100 mg/kg, route intraperitoneal; details: in vivo
Mus musculus [9] = assay: Anticonvulsant activity in Mus musculus albino CF1 (mouse) assessed as protection against 6 Hz psychomotor seizure at 100 mg/kg, ip after 0.25 hr; format: functional; details: route intraperitoneal
Mus musculus [10] = assay: Neurotoxicity in Mus musculus albino CF1 (mouse) assessed as motor impairment at 100 mg/kg, ip after 0.25 hr; format: toxicity, organism-based; parameters: dose 100 mg/kg, route intraperitoneal; details: in vivo
Mus musculus [11] = assay: Anticonvulsant activity in Mus musculus albino CF1 (mouse) assessed as protection against 6 Hz psychomotor seizure at 100 mg/kg, ip after 1 hr; format: functional; details: route intraperitoneal
Mus musculus [12] = assay: Anticonvulsant activity in Mus musculus albino CF1 (mouse) assessed as protection against 6 Hz psychomotor seizure at 100 mg/kg, ip after 0.5 hr; format: functional; details: route intraperitoneal

Compound	logP at 24 h [1]	Activity (Mus musculus [2])	Activity (Mus musculus [3]) [%]	Activity (Mus musculus [4]) [%]	Activity (Mus musculus [5])	Activity (Mus musculus [6])	Activity (Mus musculus [7])	Activity (Mus musculus [8])	Activity (Mus musculus [9]) [%]	Activity (Mus musculus [10])	Activity (Mus musculus [11]) [%]	Activity (Mus musculus [12]) [%]
Fc1ccc(Oc2ccc(/C=N/Nc3nc4ccccc4s3)cc2)cc1	5	Non-toxic	–	–	–	–	–	–	–	–	–	–
O=C(CSc1nc2ccccc2s1)N/N=C1\C(=O)Nc2ccccc21	3.2	Non-toxic	0	0	Non-toxic	Non-toxic	Non-toxic	Non-toxic	0	Non-toxic	0	75
Clc1ccc(Oc2ccc(/C=N/Nc3nc4ccccc4s3)cc2)cc1	5.6	Non-toxic	25	0	Non-toxic	Non-toxic	Non-toxic	Non-toxic	0	Non-toxic	0	50
Brc1ccc(Oc2ccc(/C=N/Nc3nc4ccccc4s3)cc2)cc1	5.5	Non-toxic	50	0	Non-toxic	Non-toxic	Non-toxic	Non-toxic	0	Non-toxic	25	50
Cc1cc(Oc2ccc(/C=N/Nc3nc4ccccc4s3)cc2)ccc1Cl	5.5	Non-toxic	0	0	Non-toxic	Non-toxic	Non-toxic	Non-toxic	25	Non-toxic	0	0
C(=N\Nc1nc2ccccc2s1)/c1ccc(Oc2ccc3ccccc3c2)cc1	5.6	Non-toxic	50	0	Non-toxic	Non-toxic	Non-toxic	Non-toxic	25	Non-toxic	25	0
C(=N\Nc1nc2ccccc2s1)/c1ccc(Oc2ccc3c(c2)OCO3)cc1	5	Non-toxic	0	0	Non-toxic	Non-toxic	Non-toxic	Non-toxic	0	Non-toxic	0	25
O=C1Nc2ccccc2/C1=N/Nc1nc2ccccc2s1	3.2	Non-toxic	25	0	Non-toxic	Non-toxic	Non-toxic	Non-toxic	0	Non-toxic	25	0
O=C(CSc1nc2ccccc2s1)N/N=C/c1ccc(Oc2ccccc2)cc1	5.6	Non-toxic	0	0	Non-toxic	Non-toxic	Non-toxic	Non-toxic	50	Non-toxic	50	25
O=C(CSc1nc2ccccc2s1)N/N=C/c1ccc(Oc2ccc([N+](=O)[O-])cc2)cc1	5.3	Non-toxic	0	0	Non-toxic	Non-toxic	Non-toxic	Non-toxic	0	Non-toxic	25	0
Cc1ccc(Oc2ccc(/C=N/NC(=O)CSc3nc4ccccc4s3)cc2)cc1	5.7	Non-toxic	–	–	–	–	–	–	–	–	–	–
O=C(CSc1nc2ccccc2s1)N/N=C/c1ccc(Oc2ccc(Cl)cc2)cc1	5.6	Non-toxic	25	0	Non-toxic	Non-toxic	Non-toxic	Non-toxic	0	Non-toxic	75	0
O=C(CSc1nc2ccccc2s1)N/N=C/c1ccc(Oc2ccc(Br)cc2)cc1	5.7	Non-toxic	0	0	Non-toxic	Non-toxic	Non-toxic	Non-toxic	0	Non-toxic	75	50
O=C(CSc1nc2ccccc2s1)N/N=C/c1ccc(Oc2ccc(F)cc2)cc1	5.5	Non-toxic	0	0	Non-toxic	Non-toxic	Non-toxic	Non-toxic	50	Non-toxic	0	25
Cc1cc(Oc2ccc(/C=N/NC(=O)CSc3nc4ccccc4s3)cc2)ccc1Cl	5.7	Non-toxic	0	0	Non-toxic	Non-toxic	Non-toxic	Non-toxic	0	Non-toxic	25	25
O=C(CSc1nc2ccccc2s1)N/N=C/c1ccc(Oc2ccc3ccccc3c2)cc1	5.9	Non-toxic	0	0	Non-toxic	Non-toxic	Non-toxic	Non-toxic	0	Non-toxic	0	25
O=C(CSc1nc2ccccc2s1)N/N=C/c1ccc(Oc2ccc3c(c2)OCO3)cc1	5.5	Non-toxic	–	–	–	–	–	–	–	–	–	–
